Literature values in patent publication US20210353710A1, “GLP-1R AGONIST AND METHODS OF TREATMENT” (The Johns Hopkins University, priority 2020, published 2021).

Details: given twice a day for one month

Exendin-4
effect on blood glucose in humans: hypoglycemic effect
